Laboratory results reported in ChEMBL document CHEMBL5726216, “Derivatives and methods of treating hepatitis B infections” (2019).
pEC50: −log10 of the molar value.

Experiment: BDNA-assay: HBV replication inhibition by the compounds of this invention could be determined in cells infected or transfected with HBV, or cells with stably integrated HBV, such as HepG2.2.15 cells (Sells et al. 1987). In this example, HepG2.2.15 cells were maintained in cell culture medium containing 10% fetal bovine serum (FBS), Geneticin, L-glutamine, penicillin and streptomycin. HepG2.2.15 cells could be seeded in 96-well plates at a density of 40,000 cells/well and be treated with serially diluted compounds at a final DMSO concentration of 0.5% either alone or in combination by adding drugs in a checker box format. Cells were incubated with compounds for three days, after which medium was removed and fresh medium containing compounds was added to cells and incubated for another three days. At day 6, supernatant was removed and treated with DNase at 37° C. for 60 minutes, followed by enzyme inactivation at 75° C. for 15 minutes. Encapsidated HBV DNA was released from the virions and covalently linked HBV polymerase by incubating in lysis buffer (Affymetrix QS0010) containing […] proteinase K at 50° C. for 40 minutes. HBV DNA was denatured by addition of 0.2 M NaOH and detected using a branched DNA (BDNA) QuantiGene assay kit according to manufacturer recommendation (Affymetrix). HBV DNA levels could also be quantified using qPCR, based on amplification of encapsidated HBV DNA extraction with QuickExtraction Solution (Epicentre Biotechnologies) and amplification of HBV DNA using HBV specific PCR probes that can hybridize to HBV DNA and a fluorescently labeled probe for quantitation. In addition, cell viability of HepG2.2.15 cells incubated with test compounds alone or in combination was determined by using CellTitre-Glo reagent according to the manufacturer protocol (Promega). The mean background signal from wells containing only culture medium was subtracted from all other samples, and percent inhibition at each compound concentration was calculated by normalizing to signals from HepG2.2.15 cells treated with 0.5% DMSO using equation E1.
`CN(OCCO)C(=O)c1n[nH]c2c1CN(C(=O)Nc1cccc(Cl)c1)CC2` gave a pEC50 of over 6.30.
`O=C(Nc1cccc(Cl)c1)N1CCc2[nH]nc(C(=O)N3CCCO3)c2C1` showed a pEC50 of over 6.30.
With `CC(C)ON(C)C(=O)c1n[nH]c2c1CN(C(=O)Nc1cccc(Cl)c1)CC2` the pEC50 was over 7.00.
`CN(OCC1CC1)C(=O)c1n[nH]c2c1CN(C(=O)Nc1cccc(Cl)c1)CC2` showed a pEC50 of over 6.30.
In the case of `CCC(=O)c1n[nH]c2c1CN(C(=O)Nc1cccc(Cl)c1)CC2`, the pEC50 was over 6.30.
Molecule `CON(C(=O)c1n[nH]c2c1CN(C(=O)Nc1cccc(Cl)c1)CC2)C(C)C` has a pEC50 of over 6.30.
In the case of `CCN(OC)C(=O)c1n[nH]c2c1CN(C(=O)Nc1cccc(Cl)c1)CC2`, the pEC50 was over 7.00.
With `CCON(C)C(=O)c1n[nH]c2c1CN(C(=O)Nc1cccc(Cl)c1)CC2` the pEC50 was over 7.00.
For `O=C(Nc1cccc(Cl)c1)N1CCc2[nH]nc(C(=O)N3CC(O)CO3)c2C1` (stereo not given), the pEC50 was over 6.00.
Molecule `CN(C)N(C)C(=O)c1n[nH]c2c1CN(C(=O)Nc1cccc(Cl)c1)CC2` has a pEC50 of over 7.00.
In the case of `CCCON(C)C(=O)c1n[nH]c2c1CN(C(=O)Nc1cccc(Cl)c1)CC2`, the pEC50 was over 6.30.
With `COCCON(C)C(=O)c1n[nH]c2c1CN(C(=O)Nc1cccc(Cl)c1)CC2` the pEC50 was over 6.30.
With `CC(C)CON(C)C(=O)c1n[nH]c2c1CN(C(=O)Nc1cccc(Cl)c1)CC2` the pEC50 was over 6.30.
In the case of `O=C(Nc1cccc(Cl)c1)N1CCc2[nH]nc(C(=O)N3CC(F)CO3)c2C1` (stereo not given), the pEC50 was over 7.00.
Work on `CN(O)C(=O)c1n[nH]c2c1CN(C(=O)Nc1cccc(Cl)c1)CC2` yielded a pEC50 of over 6.00.
`CN(OC1CCOC1)C(=O)c1n[nH]c2c1CN(C(=O)Nc1cccc(Cl)c1)CC2` (stereo not given) gave a pEC50 of over 6.30.
Work on `CN(OC1CCC1)C(=O)c1n[nH]c2c1CN(C(=O)Nc1cccc(Cl)c1)CC2` yielded a pEC50 of over 7.00.
`CN1CC(ON(C)C(=O)c2n[nH]c3c2CN(C(=O)Nc2cccc(Cl)c2)CC3)C1` gave a pEC50 of over 6.30.
For `CCCC(=O)c1n[nH]c2c1CN(C(=O)Nc1cccc(Cl)c1)CC2`, the pEC50 was over 7.00.
For `CON(C)C(=O)c1n[nH]c2c1CN(C(=O)Nc1cccc(Cl)c1)CC2`, the pEC50 was over 7.00.
